Data on 88 compounds can be found in ChEMBL document CHEMBL1122107, “Structure-antitumor activity relationships of 9-anilinoacridines using pattern recognition” (1982).

Where “and” joins values, the source holds several entries; their conditions need not be identical. Equal values may be shown once.

The test system of this assay is L1210. The experiment in a line: Tumor cell selectivity determined as maximal percent increase in life span (ILSmax) at LD10 dosage level in L1210 cells. In kind it is functional, Mus musculus.
Turning to `Cc1ccc2c(Nc3ccc(NS(C)(=O)=O)cc3)c3ccccc3nc2c1C`, the ILSmax is listed as 55%. Regarding `c1ccc(Nc2c3ccccc3nc3ccccc23)cc1`, the ILSmax is on record as 25%. The result for `N=C(N)NCCS(=O)(=O)Nc1ccc(Nc2c3ccc(N)cc3nc3ccc(N)cc23)cc1` reads 85%; that for `Nc1cccc(Nc2c3ccccc3nc3ccccc23)c1`, 50%. The result for `COc1cc(NS(C)(=O)=O)ccc1Nc1c2ccccc2nc2cc(C(C)C)ccc12` reads 40%. The compound `O=C(O)CCc1ccc(NC(=O)Nc2ccc(N=c3c4ccccc4[nH]c4ccccc34)cc2)cc1` registered an ILSmax of 125%. `CN(C)Cc1ccc(Nc2c3ccccc3nc3ccccc23)cc1` registered an ILSmax of 25%.

`Cc1cc(NS(C)(=O)=O)ccc1Nc1c2ccccc2nc2c(N)cccc12`: the ILSmax worked out at 120%.

For the compound `CCS(=O)(=O)Nc1ccc(Nc2c3ccccc3nc3cc(Cl)ccc23)c(OC)c1`, the ILSmax is 95%. The figure for `CC(=O)NCCS(=O)(=O)Nc1ccc(Nc2c3ccccc3nc3ccccc23)cc1` is 105%. For `CS(=O)(=O)Nc1ccc(Nc2c3ccccc3nc3ccccc23)c(O)c1`, the ILSmax turned out to be 85%.

`CS(=O)(=O)Nc1ccc(Nc2c3ccccc3nc3ccc(N)cc23)cc1`: the ILSmax was 50%. `CCc1ccccc1Nc1c2ccccc2nc2ccccc12` registered an ILSmax of 25%. `CN1CCN(c2ccc(Nc3c4ccccc4nc4cc([N+](=O)[O-])ccc34)cc2)CC1` showed an ILSmax of 25%.

Consider `Cc1c([N+](=O)[O-])ccc2c(Nc3ccc(NS(C)(=O)=O)cc3)c3ccccc3nc12`, for which the ILSmax is given as 70%.

Take `NCCCCc1ccc(NC(=O)Nc2ccc(N=c3c4ccccc4[nH]c4ccccc34)cc2)cc1`: the ILSmax was 170%. The result for `CS(=O)(=O)Nc1ccc(Nc2c3cc(N)ccc3nc3ccc(N)cc23)cc1` reads 35%; that for `COc1cccc2c(Nc3ccc(NS(C)(=O)=O)cc3)c3ccc(I)cc3nc12`, 80%. Take `CS(=O)(=O)c1ccc(S(=O)(=O)Nc2ccc(Nc3c4ccccc4nc4ccccc34)cc2)cc1`: the ILSmax is given as 128%.

`O=C(O)Cc1ccccc1Nc1c2ccccc2nc2ccccc12` came in with an ILSmax of 25%.

Consider `CC(=O)N(C)c1ccc(Nc2c3ccccc3nc3ccccc23)cc1`, for which the ILSmax turned out to be 50%. In the case of `NCCCCCc1ccc(NC(=O)Nc2ccc(N=c3c4ccccc4[nH]c4ccccc34)cc2)cc1`, the ILSmax stood at 170%. For the compound `CC(=O)Nc1ccc2c(Nc3ccc(N(C(=O)C(C)C)S(C)(=O)=O)cc3)c3ccccc3nc2c1`, the ILSmax stood at 140%. The result for `COc1cc(NS(C)(=O)=O)ccc1Nc1c2ccccc2nc2c(CCC(N)=O)cccc12` reads 105%; that for `CCCNc1ccc(Nc2c3ccccc3nc3ccccc23)cc1`, 25%. As to `NCCCCCCS(=O)(=O)Nc1ccc(Nc2c3ccccc3nc3ccccc23)cc1`, the ILSmax came to 25%.

In turn, `NCCCCCCc1ccc(N=c2c3ccccc3[nH]c3ccccc23)cc1` returned an ILSmax of 25%. Turning to `CC(=O)N(c1ccc(Nc2c3ccc([N+](=O)[O-])cc3nc3c(C)cccc23)cc1)S(C)(=O)=O`, the ILSmax is given as 150%. The result for `CCCCNC(=O)c1cccc2c(Nc3ccc(NS(=O)(=O)CCC)cc3OC)c3ccccc3nc12` reads 71%.

`Nc1ccc2c(Nc3ccc(NC(=O)c4ccccc4)cc3)c3ccccc3nc2c1` yielded an ILSmax of 115%. `CN(C)C(=O)CCS(=O)(=O)Nc1ccc(Nc2c3ccccc3nc3ccccc23)cc1` showed an ILSmax of 63%. With `NCCc1ccc(NC(=O)Nc2ccc(N=c3c4ccccc4[nH]c4ccccc34)cc2)cc1`, the ILSmax was 170%.

As for `NCCCCCS(=O)(=O)Nc1ccc(Nc2c3ccccc3nc3cc([N+](=O)[O-])ccc23)cc1`, the ILSmax stood at 80%. The figure for `COc1ccc2c(Nc3ccc(NS(C)(=O)=O)cc3)c3ccc([N+](=O)[O-])cc3nc2c1` is 60%; for `N#CC(C#N)=Cc1ccc(Nc2c3ccccc3nc3ccccc23)cc1` it is 65%; for `COc1cc(NS(C)(=O)=O)ccc1Nc1c2ccccc2nc2cccc([N+](=O)[O-])c12` it is 50%. The result for `Cc1cc(NS(C)(=O)=O)ccc1Nc1c2ccccc2nc2cc([N+](=O)[O-])ccc12` reads 70%.

In turn, `O=C(Nc1ccc(N=c2c3ccccc3[nH]c3ccccc23)cc1)Nc1ccc(C(=O)O)cc1` showed an ILSmax of 85%.

Turning to `O=C(O)CCCCc1ccc(Nc2c3ccccc3nc3ccccc23)cc1`, the ILSmax came out at 187%. The figure for `NCCCCCCc1ccc(N=c2c3ccccc3[nH]c3cc([N+](=O)[O-])ccc23)cc1` is 25%; for `CCC(CC)C(=O)Nc1ccc(Nc2c3ccccc3nc3ccccc23)cc1` it is 90%; for `COc1cc(NS(C)(=O)=O)ccc1Nc1c2cccc(C)c2nc2c(C)c(N)ccc12` it is 80%. `CCCCCS(=O)(=O)Nc1ccc(Nc2c3ccccc3nc3c(C(N)=O)cccc23)c(OC)c1` registered an ILSmax of 93%. `COc1cc(N)ccc1N=c1c2ccccc2[nH]c2c(C)cccc12` returned an ILSmax of 120%. Turning to `CCCS(=O)(=O)Nc1ccc(Nc2c3ccccc3nc3cc(NC(C)=O)ccc23)cc1`, the ILSmax was 115%. For `COc1cc(NS(C)(=O)=O)ccc1Nc1c2ccccc2nc2cc([N+](=O)[O-])ccc12`, the ILSmax is recorded as 76%. The result for `CCCCCCS(=O)(=O)Nc1ccc(Nc2c3ccccc3nc3cc([N+](=O)[O-])ccc23)c(OC)c1` reads 74%; that for `CS(=O)(=O)Nc1ccc(Nc2c3ccccc3nc3cccc([N+](=O)[O-])c23)cc1`, 25%; that for `CC(C(N)=O)S(=O)(=O)Nc1ccc(Nc2c3ccccc3nc3ccccc23)cc1` (stereo not drawn), 25%. `O=S(=O)(Nc1ccc(Nc2c3ccccc3nc3ccccc23)cc1)c1ccccc1` yielded an ILSmax of 75%.

For the compound `Cc1cccc2c(Nc3ccc(NS(C)(=O)=O)cc3)c3ccc([N+](=O)[O-])cc3nc12`, the ILSmax is 120% and 130%.

Take `CC(C)(C)c1ccccc1Nc1c2ccccc2nc2ccccc12`: the ILSmax turned out to be 25%.

For `CS(=O)(=O)Nc1ccc(Nc2c3ccccc3nc3c(C(N)=O)cccc23)cc1`, the ILSmax was 50%.

`N=C(N)NCCCS(=O)(=O)Nc1ccc(Nc2c3ccccc3nc3cc([N+](=O)[O-])ccc23)cc1` gave an ILSmax of 200%. `O=C(O)c1ccc(Nc2c3ccccc3nc3c(OCC(O)CO)cccc23)cc1` (stereo not drawn) showed an ILSmax of 170%. The figure for `Cc1cc(N)ccc1N=c1c2ccccc2[nH]c2ccccc12` is 76%; for `O=C(O)CCc1cccc(Nc2c3ccccc3nc3ccccc23)c1` it is 25%; for `COc1ccc2c(Nc3ccc(NS(C)(=O)=O)cc3)c3ccccc3nc2c1` it is 107%. The figure for `CNc1ccc2c(Nc3ccc(OCCCC(=O)O)cc3)c3ccccc3nc2c1` is 25%; for `COc1cc(NS(C)(=O)=O)ccc1Nc1c2ccccc2nc2cc(N)ccc12` it is 102%; for `Cc1ccc(Nc2c3ccccc3nc3ccccc23)cc1` it is 90%. The result for `COc1cc(NS(C)(=O)=O)ccc1Nc1c2ccccc2nc2c(C)c(C)ccc12` reads 118%; that for `CC(Oc1ccc(Nc2c3ccccc3nc3ccccc23)cc1)C(=O)O` (stereo not drawn), 25%; that for `NCCc1ccc(Nc2c3ccccc3nc3ccccc23)cc1`, 25%. Take `COc1cc(NS(C)(=O)=O)ccc1Nc1c2ccccc2nc2c(OC)cccc12`: the ILSmax was found to be 110%. Compound `CCS(=O)(=O)Nc1ccc(Nc2c3cccc(C)c3nc3c(C)cccc23)c(OC)c1` had an ILSmax of 70%.

On to `CS(=O)(=O)Nc1ccc(Nc2c3ccccc3nc3ccccc23)cn1`, for which the ILSmax is recorded as 141%. In turn, `CCCCCCS(=O)(=O)Nc1ccc(Nc2c3ccccc3nc3cc(S(C)(=O)=O)ccc23)c(OC)c1` came in with an ILSmax of 25%. Take `COc1ccc2nc3cc(N)ccc3c(Nc3ccc(NS(C)(=O)=O)cc3)c2c1`: the ILSmax is 25%. The figure for `COc1cc(NS(C)(=O)=O)ccc1Nc1c2cccc(C)c2nc2c(C)c([N+](=O)[O-])ccc12` is 56%; for `NCc1ccc(Nc2c3ccccc3nc3cc([N+](=O)[O-])ccc23)cc1` it is 25%; for `COc1cc(Nc2c3ccccc3nc3c([N+](=O)[O-])cccc23)ccc1NS(C)(=O)=O` it is 25%. Consider `COc1cc(NS(C)(=O)=O)ccc1Nc1c2ccc([N+](=O)[O-])cc2nc2c(C)cccc12`, for which the ILSmax was 72% and 113%. The figure for `O=C(O)CCCCCc1ccc(Nc2c3ccccc3nc3ccccc23)cc1` is 200%.

On to `COc1cc(NS(C)(=O)=O)ccc1Nc1c2ccc(C)cc2nc2cc([N+](=O)[O-])ccc12`, for which the ILSmax was found to be 92%. With `NCC(=O)NCCS(=O)(=O)Nc1ccc(Nc2c3ccccc3nc3cc([N+](=O)[O-])ccc23)cc1`, the ILSmax is 170%.

`OC[C@@H]1O[C@H](Oc2ccc(Nc3c4ccccc4nc4ccccc34)cc2)[C@@H](O)[C@H](O)[C@H]1O` returned an ILSmax of 60%.

Regarding `Cc1cc(C(=O)O)ccc1Nc1c2ccccc2nc2ccccc12`, the ILSmax amounted to 25%.

For `CC(=O)Nc1ccc2c(Nc3ccc(NS(C)(=O)=O)cc3)c3ccccc3nc2c1`, the ILSmax worked out at 60%. The figure for `COc1cc(NS(C)(=O)=O)ccc1Nc1c2ccc(Cl)cc2nc2c(C)cccc12` is 75%. In the case of `COc1ccccc1Nc1c2ccccc2nc2ccccc12`, the ILSmax worked out at 25%. Take `Cc1cccc2c(Nc3ccc(NS(C)(=O)=O)cc3)c3cc(N)c(Br)cc3nc12`: the ILSmax was 120%. Compound `CS(=O)(=O)Nc1ccc(Nc2c3ccccc3nc3cc(Cl)c(N)cc23)cc1` gave an ILSmax of 140%.

Consider `CCN(CC)c1ccc(Nc2c3ccccc3nc3ccccc23)cc1`, for which the ILSmax is 25%. The figure for `COc1cc(NS(C)(=O)=O)ccc1Nc1c2ccccc2nc2c(C(=O)NCCO)cccc12` is 100%. The result for `CC(=O)NCCS(=O)(=O)Nc1ccc(Nc2c3ccc(I)cc3nc3ccc(N)cc23)cc1` reads 105%.

In the case of `Nc1ccc(CCS(=O)(=O)Nc2ccc(Nc3c4ccccc4nc4ccccc34)cc2)cc1`, the ILSmax is 25%. For the compound `CCS(=O)(=O)Nc1ccc(Nc2c3ccccc3nc3c(C)cccc23)cc1`, the ILSmax was found to be 65%.
